Data on two compounds can be found in ChEMBL document CHEMBL1201862, “PubChem BioAssay data set” (2004).

Experiment [1] concerns the target T1, RNA-binding protein pos-1 (Caenorhabditis elegans, UniProt G5EF15).
T1 sequence (G5EF15 whole entry): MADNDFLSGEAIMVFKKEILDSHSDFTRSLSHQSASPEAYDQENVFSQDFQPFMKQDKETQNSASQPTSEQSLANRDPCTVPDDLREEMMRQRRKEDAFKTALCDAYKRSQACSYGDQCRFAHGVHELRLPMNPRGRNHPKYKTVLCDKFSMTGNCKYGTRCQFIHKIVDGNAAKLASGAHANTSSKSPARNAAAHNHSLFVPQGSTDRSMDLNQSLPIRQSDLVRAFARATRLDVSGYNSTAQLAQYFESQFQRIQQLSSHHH
Briefly: inhibitors of POS-1/mex-3 RNA binding, dose response, biochemical, fluorescence polarization (AID 1964).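 Further: purified POS-1 fused to maltose binding protein made in E. coli; potency of compounds blocking POS-1 binding to fluorescent RNA.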 For orientation: Fluorescence polarisation rises when a labelled molecule tumbles more slowly, as on binding a larger partner.

Experiment [2] deals with T2, Zinc finger protein mex-5 (Caenorhabditis elegans, UniProt Q9XUB2).
T2 sequence (Q9XUB2 whole entry): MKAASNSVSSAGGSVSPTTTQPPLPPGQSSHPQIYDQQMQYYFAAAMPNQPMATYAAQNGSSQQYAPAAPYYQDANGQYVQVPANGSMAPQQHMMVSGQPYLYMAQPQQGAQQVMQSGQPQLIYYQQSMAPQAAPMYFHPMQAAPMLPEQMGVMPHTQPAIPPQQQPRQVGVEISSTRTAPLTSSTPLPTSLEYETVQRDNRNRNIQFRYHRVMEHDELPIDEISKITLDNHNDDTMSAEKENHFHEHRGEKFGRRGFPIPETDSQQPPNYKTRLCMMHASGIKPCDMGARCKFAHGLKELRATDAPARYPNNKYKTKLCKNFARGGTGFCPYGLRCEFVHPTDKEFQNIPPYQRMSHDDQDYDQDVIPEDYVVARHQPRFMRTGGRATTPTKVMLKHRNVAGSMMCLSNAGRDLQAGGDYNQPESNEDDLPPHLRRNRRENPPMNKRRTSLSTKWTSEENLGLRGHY
The experiment can be described thus: MEX-5/TCR-2 RNA interaction inhibitors, dose response, biochemical, C. elegans, fluorescence polarization (AID 1960).

Experiment [3] has as its target Intestinal-type alkaline phosphatase (Homo sapiens, UniProt P09923). Briefly: activation of human intestinal alkaline phosphatase – biochemical, dose response (AID 488873). Type of experiment: functional.
Experiment [4] deals with T3, Heat shock factor protein 1 (Mus musculus, UniProt P38532).
T3 sequence (P38532 whole entry): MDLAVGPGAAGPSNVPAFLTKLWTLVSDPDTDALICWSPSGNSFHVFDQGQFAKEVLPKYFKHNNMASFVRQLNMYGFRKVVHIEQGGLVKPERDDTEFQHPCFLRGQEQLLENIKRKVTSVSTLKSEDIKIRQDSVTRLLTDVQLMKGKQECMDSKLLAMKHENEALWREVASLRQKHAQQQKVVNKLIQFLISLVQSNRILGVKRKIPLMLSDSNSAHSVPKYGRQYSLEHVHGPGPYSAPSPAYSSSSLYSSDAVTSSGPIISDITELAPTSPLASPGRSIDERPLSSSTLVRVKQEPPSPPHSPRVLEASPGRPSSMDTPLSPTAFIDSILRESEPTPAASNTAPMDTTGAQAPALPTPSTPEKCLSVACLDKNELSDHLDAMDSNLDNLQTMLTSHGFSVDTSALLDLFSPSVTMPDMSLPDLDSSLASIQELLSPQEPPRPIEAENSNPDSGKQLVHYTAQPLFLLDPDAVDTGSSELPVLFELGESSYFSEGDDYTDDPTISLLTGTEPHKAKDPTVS
The experiment can be described thus: HSF1 potentiators in luciferase reporter cells, confirmation, cell-based, NIH3T3, luminescence, dose retest (AID 435004).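 Further: stress induced by proteasome inhibitor MG132 added 30 min after compound; luciferase reporter driven by HSF1 response element in NIH3T3 cells; actives raise luminescence as potentiators of the MG132 stress response.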 The class given is functional. (In general: Reporter assays use an easily measured gene product as a stand-in for the process of interest.)

For experiment [5], the target named is Intestinal-type alkaline phosphatase (Mus musculus, UniProt P24822). The experiment can be described thus: mouse intestinal alkaline phosphatase activators, dose response, biochemical, luminescence, uHTS hits (AID 488783). Type of experiment: functional.
Experiment [6] deals with T4, Alkaline phosphatase, tissue-nonspecific isozyme (Homo sapiens, UniProt P05186).
T4 sequence (P05186 whole entry): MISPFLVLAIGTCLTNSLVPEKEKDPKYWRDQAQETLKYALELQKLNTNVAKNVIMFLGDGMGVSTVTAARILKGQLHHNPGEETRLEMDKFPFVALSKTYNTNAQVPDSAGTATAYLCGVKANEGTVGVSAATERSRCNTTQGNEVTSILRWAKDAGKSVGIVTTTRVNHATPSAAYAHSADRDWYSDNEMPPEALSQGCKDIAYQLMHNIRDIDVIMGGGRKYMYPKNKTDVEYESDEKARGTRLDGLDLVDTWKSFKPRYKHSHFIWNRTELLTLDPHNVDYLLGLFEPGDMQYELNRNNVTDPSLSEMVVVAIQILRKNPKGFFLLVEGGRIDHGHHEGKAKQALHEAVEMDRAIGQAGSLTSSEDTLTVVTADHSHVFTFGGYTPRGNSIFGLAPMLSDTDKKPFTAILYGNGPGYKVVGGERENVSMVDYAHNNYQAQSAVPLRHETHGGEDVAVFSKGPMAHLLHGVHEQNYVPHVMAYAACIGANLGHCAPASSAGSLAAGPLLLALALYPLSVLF
Briefly: TNAP enzyme activators, dose response, selectivity assay for mouse IAP activator project, biochemical, TNAP isozyme, mouse IAP uHTS hits (AID 488880). The class given is functional.

Experiment [7] addresses T5, Rac GTPase-activating protein 1 (Homo sapiens, UniProt Q9H0H5).
T5 sequence (Q9H0H5 whole entry): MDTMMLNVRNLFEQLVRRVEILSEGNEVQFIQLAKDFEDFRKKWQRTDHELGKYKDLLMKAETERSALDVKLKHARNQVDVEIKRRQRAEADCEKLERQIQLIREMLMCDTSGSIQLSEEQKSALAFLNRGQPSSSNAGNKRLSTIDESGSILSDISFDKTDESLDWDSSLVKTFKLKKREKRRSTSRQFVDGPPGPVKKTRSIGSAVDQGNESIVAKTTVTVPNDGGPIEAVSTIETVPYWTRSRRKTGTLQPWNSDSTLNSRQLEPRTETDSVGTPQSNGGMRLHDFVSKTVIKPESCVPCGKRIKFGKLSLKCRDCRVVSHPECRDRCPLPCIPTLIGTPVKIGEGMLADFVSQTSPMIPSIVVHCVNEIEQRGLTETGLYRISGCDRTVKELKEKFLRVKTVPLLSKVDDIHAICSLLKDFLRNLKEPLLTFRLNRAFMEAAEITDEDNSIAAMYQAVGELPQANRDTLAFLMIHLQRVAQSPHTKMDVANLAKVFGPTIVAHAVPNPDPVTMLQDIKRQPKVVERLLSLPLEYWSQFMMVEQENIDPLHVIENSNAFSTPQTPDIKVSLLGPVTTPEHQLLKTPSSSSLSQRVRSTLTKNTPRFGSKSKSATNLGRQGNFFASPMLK
The experiment can be described thus: MgcRacGAP GTPase-activating activity inhibitors, confirmation, biochemical, ADP Hunter fluorescence, primary and confirmatory (AID 624330). Type of experiment: functional.

Experiment [8] addresses T6, G-protein coupled receptor 35 (Homo sapiens, UniProt Q9HC97). Briefly: SAR analysis of Agonists of the GPR35 Receptor using an Image-Based Assay - Set 4. [Related pubchem assays (depositor defined):AID2013, AID2026]. The class given is functional.
The target of experiment [9] is T7, Cannabinoid receptor 1 (Homo sapiens, UniProt P21554). Briefly: SAR analysis of agonists of the Cannabinoid Receptor 1 using an Image-Based Assay - Set 4. [Related pubchem assays (depositor defined):AID2013, AID2026]. Type of experiment: functional.
Experiment [10] addresses T6, G-protein coupled receptor 35. The experiment can be described thus: SAR analysis of Antagonists of the GPR35 Receptor using an Image-Based Assay - Set 6. [Related pubchem assays (depositor defined):AID2013, AID2026]. The class given is functional.
Experiment [11] has as its target T7, Cannabinoid receptor 1. The experiment can be described thus: SAR analysis of antagonists of the Cannabinoid Receptor 1 using an Image-Based Assay - Set 4. [Related pubchem assays (depositor defined):AID2013, AID2026]. The class given is functional.
The target of experiment [12] is G-protein coupled receptor 55 (Homo sapiens, UniProt Q9Y2T6). Briefly: SAR Analysis of Selective Antagonists of GPR55 using an Image-Based Assay - Set 4. [Related pubchem assays (depositor defined):AID2013, AID2026]. The class given is functional.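 Further: antagonism of response to 5 µM lysophosphatidylinositol agonist.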
The target in experiment [13] is T8, Cannabinoid receptor 2 (Homo sapiens, UniProt P34972). Briefly: SAR analysis of antagonists of the Cannabinoid Receptor 2 using an Image-Based Assay - Set 3. [Related pubchem assays (depositor defined):AID2013, AID2026]. The class given is functional.
Experiment [14] addresses T8, Cannabinoid receptor 2. Briefly: SAR analysis of agonists of the Cannabinoid Receptor 2 using an Image-Based Assay - Set 3. [Related pubchem assays (depositor defined):AID2013, AID2026]. The class given is functional.

Each structure is given as a SMILES string. The source made the active and inactive calls. Some results are limits rather than exact numbers.

T6 sequence (Q9HC97 whole entry): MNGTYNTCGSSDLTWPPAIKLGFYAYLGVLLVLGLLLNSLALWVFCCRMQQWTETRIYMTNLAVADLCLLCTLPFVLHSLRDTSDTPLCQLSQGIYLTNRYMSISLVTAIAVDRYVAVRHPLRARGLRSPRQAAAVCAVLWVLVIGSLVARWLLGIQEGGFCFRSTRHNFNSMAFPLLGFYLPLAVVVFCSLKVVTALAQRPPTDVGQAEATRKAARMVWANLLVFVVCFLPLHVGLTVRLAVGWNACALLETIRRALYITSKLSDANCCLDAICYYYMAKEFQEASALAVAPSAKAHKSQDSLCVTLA
T7 sequence (P21554 whole entry): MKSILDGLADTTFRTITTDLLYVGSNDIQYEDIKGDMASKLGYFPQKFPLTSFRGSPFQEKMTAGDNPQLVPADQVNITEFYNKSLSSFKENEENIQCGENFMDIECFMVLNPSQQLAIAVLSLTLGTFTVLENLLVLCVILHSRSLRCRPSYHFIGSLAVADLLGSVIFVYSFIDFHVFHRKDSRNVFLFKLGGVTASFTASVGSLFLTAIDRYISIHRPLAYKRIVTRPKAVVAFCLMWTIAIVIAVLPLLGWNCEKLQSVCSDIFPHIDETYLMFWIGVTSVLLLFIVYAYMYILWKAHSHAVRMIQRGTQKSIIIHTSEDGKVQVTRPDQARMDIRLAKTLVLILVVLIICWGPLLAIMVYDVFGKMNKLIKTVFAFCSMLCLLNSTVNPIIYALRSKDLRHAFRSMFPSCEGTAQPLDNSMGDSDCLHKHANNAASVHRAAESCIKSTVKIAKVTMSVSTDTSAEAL
T8 sequence (P34972 whole entry): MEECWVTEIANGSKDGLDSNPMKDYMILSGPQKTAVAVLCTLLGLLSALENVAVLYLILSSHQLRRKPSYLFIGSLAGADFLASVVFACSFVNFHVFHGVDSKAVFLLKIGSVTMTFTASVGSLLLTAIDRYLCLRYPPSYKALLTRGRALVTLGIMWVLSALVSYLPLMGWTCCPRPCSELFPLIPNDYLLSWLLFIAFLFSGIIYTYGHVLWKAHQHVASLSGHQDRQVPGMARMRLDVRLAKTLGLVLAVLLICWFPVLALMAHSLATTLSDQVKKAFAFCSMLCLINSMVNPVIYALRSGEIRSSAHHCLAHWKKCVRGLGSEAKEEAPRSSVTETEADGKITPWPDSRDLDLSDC
Sequence of Intestinal-type alkaline phosphatase (Mus musculus, UniProt P24822) (P24822 whole entry): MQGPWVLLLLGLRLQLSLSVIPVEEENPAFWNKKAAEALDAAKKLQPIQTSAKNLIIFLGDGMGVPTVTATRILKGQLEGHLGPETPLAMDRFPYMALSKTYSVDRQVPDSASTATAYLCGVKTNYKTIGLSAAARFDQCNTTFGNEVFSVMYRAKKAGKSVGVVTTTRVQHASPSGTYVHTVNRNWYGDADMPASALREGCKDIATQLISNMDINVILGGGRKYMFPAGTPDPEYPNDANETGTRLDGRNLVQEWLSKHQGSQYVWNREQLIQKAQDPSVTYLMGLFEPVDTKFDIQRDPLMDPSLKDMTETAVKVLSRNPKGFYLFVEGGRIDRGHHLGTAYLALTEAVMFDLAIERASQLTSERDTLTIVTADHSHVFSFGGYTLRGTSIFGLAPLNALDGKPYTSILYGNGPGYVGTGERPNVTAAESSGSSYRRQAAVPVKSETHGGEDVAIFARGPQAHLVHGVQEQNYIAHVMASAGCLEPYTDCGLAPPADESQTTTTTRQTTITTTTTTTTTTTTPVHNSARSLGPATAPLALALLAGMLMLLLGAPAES
Sequence of G-protein coupled receptor 55 (Q9Y2T6 whole entry): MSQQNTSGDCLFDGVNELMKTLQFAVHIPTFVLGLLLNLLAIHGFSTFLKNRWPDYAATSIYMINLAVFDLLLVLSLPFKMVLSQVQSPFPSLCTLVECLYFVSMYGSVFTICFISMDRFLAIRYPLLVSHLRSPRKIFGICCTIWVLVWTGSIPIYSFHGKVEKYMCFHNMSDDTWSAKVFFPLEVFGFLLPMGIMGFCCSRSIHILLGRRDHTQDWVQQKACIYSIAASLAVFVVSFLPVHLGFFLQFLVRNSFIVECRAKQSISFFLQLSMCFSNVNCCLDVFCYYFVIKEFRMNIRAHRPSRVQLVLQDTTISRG
Sequence of Intestinal-type alkaline phosphatase (Homo sapiens, UniProt P09923) (P09923 whole entry): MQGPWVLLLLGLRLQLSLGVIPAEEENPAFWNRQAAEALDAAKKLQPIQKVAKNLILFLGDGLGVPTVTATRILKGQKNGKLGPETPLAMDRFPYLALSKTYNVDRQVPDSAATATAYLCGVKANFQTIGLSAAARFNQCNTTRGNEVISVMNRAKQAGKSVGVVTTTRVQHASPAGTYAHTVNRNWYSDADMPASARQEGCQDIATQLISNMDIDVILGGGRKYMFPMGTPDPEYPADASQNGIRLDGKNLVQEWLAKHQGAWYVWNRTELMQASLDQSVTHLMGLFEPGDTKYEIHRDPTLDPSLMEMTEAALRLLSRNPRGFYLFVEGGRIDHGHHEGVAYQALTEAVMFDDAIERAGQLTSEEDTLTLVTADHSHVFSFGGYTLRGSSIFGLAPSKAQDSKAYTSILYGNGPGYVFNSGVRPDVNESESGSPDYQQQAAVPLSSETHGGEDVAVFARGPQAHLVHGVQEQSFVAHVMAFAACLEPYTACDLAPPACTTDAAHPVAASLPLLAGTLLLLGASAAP

As to `Cc1cc(O)nc(N/N=C/c2ccc(O)c(O)c2)n1`, the EC50 in experiment [1] is 99.3 µM (active); in experiment [2] it was 125 µM (active); in experiment [3], 66.2 µM (active); in experiment [4], > 260 µM (inactive); in [5] it was 58.7 µM (active); in [6] it was 56.1 µM (active). In [7], the half-maximal inhibitory concentration (IC50) was 21.4 µM (active).

Take `O=C(Nc1ccc(S(=O)(=O)Nc2nccs2)cc1)c1cc(-c2cccs2)nc2ccccc12`: the EC50 (in experiment [8]; on Cannabinoid receptor 1 [9]; at Cannabinoid receptor 2 [14]) was > 32 µM (inactive) each time. In addition, the IC50 is > 32 µM (inactive) in experiment [10], 4.09 µM (active) on Cannabinoid receptor 1 [11], 29 µM (inactive) in [12] and > 32 µM (inactive) on Cannabinoid receptor 2 [13].

As a reminder, the EC50 is the midpoint of the concentration-response curve. As a reminder, the IC50 is the concentration that gives 50% inhibition.
